# Measured values published in US20130217892A1, “Use Of N-Substituted 2-Pyrrolidone-4-Carboxylic Acid Esters And Solvents” (CLARIANT FINANCE (BVI) LIMITED, priority 2010, published 2013).
# Test: Solubilities of pesticides in compounds of the formula (1)
# Type: physicochemical
# Protocol: The solubilities of various pesticides were determined in various compounds of the formula (1) at 25° C. All data are in % by weight (Table 1).
smiles,measurement,value
"CCCCOC(=O)C1CC(=O)N(C)C1 (centres unmarked) [example 3, N-Butyl N-Methyl-2-Pyrrolidone-4-Carboxylate]",Solubility of Pendimethalin in the compound of the formula (1),38.9 % by weight
same,Solubility of Tebuconazole in the compound of the formula (1),37.0 % by weight
same,Solubility of Triadimefon in the compound of the formula (1),43.0 % by weight
same,Solubility of Trifloxystrobin in the compound of the formula (1),30.1 % by weight
same,Solubility of Trifluralin in the compound of the formula (1),57.4 % by weight
